In patent US10426752B2, “Menthol-derivative compounds and use thereof as oral and systemic active agents” (priority 2009, dated 2019):
Values after ≈ are worked out from the molar mass of the structure shown. Where two headings read alike, the source gives them in different places. Values belong to the compound of their own block, whether it stands above or below them.

Key:
GM-CSF = experiment: 5-plex assay by using Luminex: GM-CSF; format: cell-based; conditions: pure compounds
Excerpt: (§1) The menthol-derivative compound of the present invention was further evaluated in 5-plex assay by using luminex.

IL-1b = experiment: 5-plex assay by using Luminex: IL-1b; format: cell-based; conditions: pure compounds
Excerpt: as §1

A.v = experiment: Minimal Inhibitory Concentration (MIC) test, SOP No. ATO-5308-00; format: cell-based; conditions: for MIC: read-out: MIC (against A.v)
Method: The anti-microbial test was measured according to the SOP No. ATO-5308-00 for determination of Minimal Inhibitory Concenctration (MIC).
(§2) The bacterial anti-attachment activity of a selected radical of menthol carbonate/carbamate derivatives of the present invention was investigated using the crystal violate assay (SOP No. ATO-5345-00) in a 384-well plate over a 0.0004-2500 ppm concentration range. The anti-oxidant activity of the menthol carbonate/carbamate derivatives of the present invention was determined using the lipid peroxides assay (Kamiaya Biomedical Co., Seattle, Wash.) which is a colorimetric method that measures reduction of cumene hydroperoxide radicals. The anti-microbial test was performed according to the SOP No. ATO-5308-00 for determination of Minimal Inhibitory Concentration (MIC). The anti-inflammatory test was carried out according to SOP No. ATO-5307-00 measuring the percent inhibition of PGE2.

IL-6 = experiment: 5-plex assay by using Luminex: IL-6; format: cell-based; conditions: for IL-6 (reduction of untreated control): pure compounds
Excerpt: as §1

TNF-α = experiment: 5-plex assay by using Luminex: TNF-α; format: cell-based; conditions: for TNF-α (reduction of untreated control): pure compounds
Excerpt: as §1

PGE2 = PGE2 assay (anti-inflammatory test, SOP No. ATO-5307-00); format: cell-based
Method: The anti-inflammation test was carried out according to SOP No. ATO-5307-00 measuring the percent inhibition of PGE2.
as §2
The anti-inflammatory activity of 2-isopropyl-5-methylcyclohexyl 2-hydroxyphenyl carbamate was tested in PGE2 assay and compared to Triclosan.

[1] = Lipid peroxides assay (anti-oxidant activity); format: biochemical; conditions: in simple solution, FIG. 2
Method: The anti-oxidant activity was determined using the lipid peroxidases assay (Kamiaya Biomedical Co., Seattle, Wash.) which is a colorimetric method that measures reduction of cumene hydroperoxide radicals.
as §2

[2] = Artificial mouth model (anti-microbial efficacy); conditions: FIG. 5
MMP-13 mRNA = experiment: Inhibition of MMP-13 mRNA expression stimulated by parathyroid hormone (PTH); format: cell-based; conditions: PTH for 4 hours, FIG. 4
Method: The anti-MMP-13 activity was determined by measuring the inhibition of MMP-13 mRNA expression that is stimulated by parathyroid hormone (PTH).

SMILES: Oc1cc(Cl)ccc1Oc1ccc(Cl)cc1Cl [Triclosan, 2,4,4-trichloro-2′-hydroxydiphenyl ether, reference compound]
GM-CSF (reduction of untreated control) (GM-CSF): 4%
IL-1b (reduction of untreated control) (IL-1b): 13%
MIC (A.v): 1.9 µg/mL (≈ 6.56 µM)
IL-6 (reduction of untreated control) (IL-6): 37%
TNF-α (reduction of untreated control) (TNF-α): 58%
IC50 (PGE2): 480 nM

Anti-microbial efficacy in MIC test (in words) (A.v): good anti-microbial efficacy
MIC (A.v; in vitro): 4.9 µg/mL (≈ 16.8 µM)
IC50 (PGE2; pure compounds, PGE2 assay, read-out: IC50): 380 nM
SMILES: CC1CCC(C(C)C)C(OC(=O)Nc2ccccc2O)C1 (stereo not shown) [2-isopropyl-5-methylcyclohexyl 2-hydroxyphenyl carbamate]
GM-CSF (reduction of untreated control) (GM-CSF): 6%
Anti-oxidant efficacy (in words) [1]: comparable anti-oxidant efficacy with Vitamin E
IL-1b (reduction of untreated control) (IL-1b): 13%
IL-6 production (in words) (IL-6; pure compound): significantly inhibits
IL-6 (reduction of untreated control) (IL-6): 33%
Anti-microbial efficacy in artificial mouth model (in words) [2]: good anti-microbial efficacy
TNF-α production (in words) (TNF-α; pure compound): significantly inhibits
TNF-α (reduction of untreated control) (TNF-α): 81%
MMP-13 mRNA stimulated by parathyroid hormone (in words) (MMP-13 mRNA): significantly suppressed
Anti-inflammatory activity in PGE2 assay (in words) (PGE2; pure compound): comparable to Triclosan
